This note sets out measurements from ChEMBL document CHEMBL1129420 (J Med Chem, 1996).

The nature of this experiment: Concentration for hnps- Phospholipase A2 was evaluated using radioligand [3H]arachidonate binding assay in Escherichia coli membranes. It counts as cell membranes.

As for `CCCCCCCCOCC(COP(=O)(O)OCCN)OP(=O)(O)CCCCCCC` (stereo unspecified), the half-inhibitory concentration (IC50) (in general, the concentration that inhibits the measured activity by half) was found to be 0.2 µM.
